What follows are molecules tested on recombinant hispidin hydroxylases (assay: Functionality test of isolated recombinant hispidin hydroxylases in luminometer). Settings: 0.2 μM hispidin, 1 mM NADPH, Neonothopanus nambi luciferase.
Format: biochemical
Protocol: Polyhistidine sequence (His tag) was operatively attached to 5′-end of nucleic acids coding hispidin-3-hydroxylases and luciferase from Neonothopanus nambi, obtained according to the examples 1 and 2. The obtained structures were cloned into pET-23 vector by means of restriction endonucleases BamHI and HindIII. The vector was used for transformation of Escherichia coli cells of BL21-DE3 strain. The cells were dispersed in Petri dishes with LB medium, comprising 1.5% of agar, 100 μg/ml of ampicillin, and incubated overnight at 37° C. Then, Escherichia coli colonies were transferred into 4 ml of liquid LB medium laced with ampicillin, incubated overnight at 37° C. with fluctuation. 1 ml of overnight culture was transferred into 100 ml of Overnight Express Autoinduction medium (Novagen), where ampicillin was preliminarily added to. The culture was grown at 37° C. within 2.5 hours until reaching optical density of 0.6 OE at 600 nm, and then it was grown at room temperature within 16 hours. […]
Aliquots of isolated recombinant hispidin hydroxylases were used for testing functionality and stability. […] In all cases the luminescence intensity when using hispidin was the highest when using Neonothopanus nambi hispidin hydroxylase and the lowest when using Armillaria mellea hispidin hydroxylase.

Molecule | luminescence intensity when using hispidin (comparison of hispidin hydroxylases)
Neonothopanus nambi hispidin hydroxylase: isolated recombinant hispidin hydroxylase from Neonothopanus nambi (protein, listed as Neonothopanus nambi) MASFENSLSVLIVGAGLGGLAAAIALRRQGHVVKIYDSSSFKAELGAGLAVPPNTLRSLQQLGCNTENLNGVDNLCFTAMGYDGSVGMMNNMTDYREAYGTSWIMVHRVDLHNELMRVALDPGGLGPPATLHLNHRVTFCDVDACTVTFTNGTTQSADLIVGADGIRSTIRRFVLEEDVTVPASGIVGFRWLVQADALDPYPELDWIVKKPPLGARLISTPQNPQSGVGLADRRTIIIYACRGGTMVNVLAVHDDERDQNTADWSVPASKDDLFRVFHDYHPRFRRLLELAQDINLWQMRVVPVLKKWVNKRVCLLGDAAHASLPTLGQGFGMGLEDAVALGTLLPKGTTASQIETRLAVYEQLRKDRAEFVAAESYEEQYVPEMRGLYLRSKELRDRVMGYDIKVESEKVLETLLRSSNSA | highest

Each molecule was assayed on recombinant hispidin hydroxylase from Neonothopanus nambi (assay: HPLC analysis of hydroxylation by recombinant hispidin hydroxylase). Settings: 0.2 μM substrate, 1 mM NADPH, 30 minutes.
Format: biochemical
Protocol: The isolated recombinant hispidin hydroxylase from Neonothopanus nambi, obtained according to Example 4, was added to reaction mixtures comprising 1 mM of NADPH and 0.2 μM of hispidin, (E)-4-hydroxy-6-styryl-2H-pyran-2-one or (E)-4-hydroxy-6-(4-hydroxystyryl)-2H-pyran-2-one in 100 μl of the buffer (0.2 M of Na-phosphate buffer, 0.5 M of Na2SO4, 0.1% dodecylmaltoside (DDM) pH 8.0). In 30 minutes, the reaction mixture was analyzed by HPLC using synthetic luciferins as standards.

Molecule | HPLC detection of hydroxylated product
O=c1cc(O)cc(/C=C/c2ccc(O)cc2)o1 [(E)-4-hydroxy-6-(4-hydroxystyryl)-2H-pyran-2-one] | occurrence of peaks corresponding to 3d position hydroxylated derivatives
O=c1cc(O)cc(/C=C/c2ccccc2)o1 [(E)-4-hydroxy-6-styryl-2H-pyran-2-one] | occurrence of peaks corresponding to 3d position hydroxylated derivatives

The molecules below were run on luciferase and hispidin hydroxylase of Neonothopanus nambi (assay: Hispidin hydroxylase with hispidin analogues in cell lysate). Settings: 660 μg/ml, 1 mM NADPH, pH 8.0.
Format: biochemical
Protocol: HEK293NT cells, expressing luciferase and hispidin hydroxylase of Neonothopanus nambi, obtained according to Example 2, were rinsed from Petri dishes 24 hours after transfection with Versene solution laced with 0.025% of trypsin, the medium was replaced by phosphate-buffered saline with pH 8.0 by centrifugation, the cells were resuspended, lysed by ultrasound in Bioruptor (Diagenode, Belgium) with in 7 minutes at 0° C. in conditions recommended by the manufacturer, and 1 mM of NADPH (Sigma-Aldrich, USA), and also hispidin or one of its analogues were added to the medium: (E)-4-hydroxy-6-(4-hydroxystyryl)-2H-pyran-2-one, (E)-6-(2-(1H-indol-3-yl)vinyl)-4-hydroxy-2H-pyran-2-one, (E)-6-(2-(1,2,3,5,6,7-hexahydropyrido[3,2,1-ij]quinolin-9-yl)vinyl)-4-hydroxy-2H-pyran-2-one, E)-6-(4-(diethylamino)styryl)-4-hydroxy-2H-pyran-2-one, or (E)-4-hydroxy-6-(2-(6-hydroxynaphthalene-2-yl)vinyl)-2H-pyran-2-one at concentration of 660 μg/ml. Bioluminescence spectra were detected by spectrofluorometer Varian Cary Eclipse. […] Depending on luciferin used the expected displacement of luminescence peak was observed.

Molecule | Luminescence in lysates
O=c1cc(O)cc(/C=C/c2ccc(O)cc2)o1 [(E)-4-hydroxy-6-(4-hydroxystyryl)-2H-pyran-2-one] | Luminescence in lysates was observed
O=c1cc(O)cc(/C=C/c2ccc3cc(O)ccc3c2)o1 [(E)-4-hydroxy-6-(2-(6-hydroxynaphthalene-2-yl)vinyl)-2H-pyran-2-one] | Luminescence in lysates was observed
O=c1cc(O)cc(/C=C/c2cc3c4c(c2)CCCN4CCC3)o1 [(E)-6-(2-(1,2,3,5,6,7-hexahydropyrido[3,2,1-ij]quinolin-9-yl)vinyl)-4-hydroxy-2H-pyran-2-one] | Luminescence in lysates was observed
CCN(CC)c1ccc(/C=C/c2cc(O)cc(=O)o2)cc1 [(E)-6-(4-(diethylamino)styryl)-4-hydroxy-2H-pyran-2-one] | Luminescence in lysates was observed
O=c1cc(O)cc(/C=C/c2c[nH]c3ccccc23)o1 [(E)-6-(2-(1H-indol-3-yl)vinyl)-4-hydroxy-2H-pyran-2-one] | Luminescence in lysates was observed

What follows are molecules tested on Pichia pastoris GS115 yeast cells expressing luciferase, hispidin hydroxylase and coumarate-CoA ligase 1 (assay: Screening of PKS for hispidin-synthase activity in yeast colonies sprayed with caffeic acid). Settings: colonies sprayed with caffeic acid solution.
Format: cell-based
Text: The selected nucleotide sequences for expression in Pichia pastoris yeast cells and Nicotiana benthamiana plant cells were optimized. The resulting nucleic acids were obtained synthetically and cloned into pGAPZ vector and used for verifying ability of the expressed proteins to synthesize hispidin.
For this purpose, in genome of Pichia pastoris GS115 yeast line, constitutively expressing Neonothopanus nambi luciferase and hispidin hydroxylase, obtained according to Example 1, there was additionally introduced pGAPZ plasmid, comprising gene of
Arabidopsis thaliana coumarate-CoA ligase 1 (which nucleotide and amino acid sequence are shown in SEQ ID NOs: 140, 141), also obtained by oligonucleotide synthesis. The plasmid was linearized at restriction site AvrII and used for transformation into Pichia pastoris GS115 cells.
The obtained yeast cells, constitutively expressing Neonothopanus nambi luciferase and hispidin hydroxylase and Arabidopsis thaliana coumarate-CoA ligase 1, were […] by plasmids comprising coding PKS sequences, and dispersed in Petri dishes with RDB medium, comprising 1 M of sorbitol, 2% (weight/volume) of glucose, 1.34% (weight/volume) of yeast nitrogen base (YNB), 0.005% (weight/volume) of amino acids mixture, 0.00004% (weight/volume) of biotin and 2% (weight/volume) of agar. To identify enzymes having hispidin-synthase activity, the obtained colonies were sprayed with caffeic acid solution, detecting hispidin-synthase presence in cells by occurrence of luminescence. Luminescence emitted by colonies was detected by means of IVIS Spectrum CT (Perkin Elmer, USA). Yeast line constitutively expressing luciferase, hispidin hydroxylase and coumarate-CoA ligase 1, and also wild yeast cells were used as negative control. […] Amino acid sequences coded by then are shown in SEQ ID NOs: 119, 121, 123, 125, 127, 129, 131, 133, 135, 137, 139 respectively.

Molecule | hispidin-synthase activity
SEQ ID NO: 135: plant type III polyketide synthase (PKS) (protein, listed as Wachendorfia thyrsiflora) MASTEGIQAYRNNMAEGPATIMAIGTANPPNVVDASTFPDYYWRVTNSEHLSPEYRVKLKRICERSSIRKRHLVLTEQLLKENPTLTTYVDASYDERQSIVLDAVPKLACEAAAKAIKEWGRPKTDITHMVVCTGAGVDVPGVDYKMMNLLGLPPTVNRVMLYNVGCHASGTVLRIAKDLAENNKGARVLVVSSEVSVMFFRGPAEGDVEILLGQALFGDGSAAIIVGADPIEGVEKPIFQIFSASQMTLPEGEHLVAGHLRELGLTFHLKPQLPNTVSSNIHKPLKKAFEPLNITDWNSIFWIVHPGGRAILDQVQEKIGLEENKLDVSRYVLAENGNMMSASVFFIMDEMRKRSAAQGCSTTGEGHEWGVLFGFGPGLSIETVVLHSVPLSI | had hispidin-synthase activity

What follows are molecules tested on hispidin-synthase and caffeylpyruvate hydrolase with Neonothopanus nambi luciferase and hispidin hydroxylase (assay: Luminescence with recombinant hispidin-synthase, caffeylpyruvate hydrolase, luciferase and hispidin hydroxylase). Settings: 0.2 μM.
Format: biochemical
Protocol: The obtained enzymes were used for obtaining luminescence (bioluminescence) in reaction with Neonothopanus nambi luciferase and hispidin hydroxylase, obtained according to Example 4. 5 μl of each isolated recombinant protein solution were put into a glass tube, comprising 100 μl of the buffer (0.2 M of Na-phosphate buffer, 0.5 M of Na2SO4, 0.1% dodecylmaltoside (DDM) pH 8.0), 1 mM of NADPH (Sigma-Aldrich, USA), 10 mM of ATP (ThermoFisher Scientific, USA), 1 mM of CoA (Sigma-Aldrich, USA), 1 mM of malonyl-CoA (Sigma-Aldrich, USA) and 0.2 μM of one of 3-arylacrylic acids: paracoumaric acid (Sigma-Aldrich, USA), cinnamic acid (Sigma-Aldrich, USA) or ferulic acid (Abcam, USA). In the other experiment instead of substituted 3-arylacrylic acid the analogues of fungal oxyluciferin—(2E,5E)-2-hydroxy-6-(4-hydroxyphenyl)-4-oxohexa-2,5-diene, (2E,5E)-2-hydroxy-4-oxo-6-phenylhexa-2,5-diene, or (2E,5E)-2-hydroxy-6-(4-hydroxy-3-methoxyphenyl)-4-oxohexa-2,5-diene acids—also at concentration of 0.2 μM were put into a glass tube. The glass tubes were placed into a luminometer.

Molecule | luminescence in reaction
O=C(/C=C/c1ccccc1)/C=C(/O)C(=O)O [(2E,5E)-2-hydroxy-4-oxo-6-phenylhexa-2,5-diene acid] | resulted in luminescence
O=C(O)/C=C/c1ccc(O)cc1 [paracoumaric acid] | resulted in luminescence
COc1cc(/C=C/C(=O)O)ccc1O [ferulic acid] | resulted in luminescence
O=C(O)/C=C/c1ccccc1 [cinnamic acid] | resulted in luminescence
COc1cc(/C=C/C(=O)/C=C(/O)C(=O)O)ccc1O [(2E,5E)-2-hydroxy-6-(4-hydroxy-3-methoxyphenyl)-4-oxohexa-2,5-diene acid] | resulted in luminescence
O=C(/C=C/c1ccc(O)cc1)/C=C(/O)C(=O)O [(2E,5E)-2-hydroxy-6-(4-hydroxyphenyl)-4-oxohexa-2,5-diene acid] | resulted in luminescence
